# Values quoted from earlier work in patent publication US20210319872A1, “DRUG AND DEVICE COMBINATION PRODUCTS WITH IMPROVED SAFETY AND EFFICACY PROFILES” (priority 2016, published 2021).
# Where two headings read alike, the source gives them in different places.
compound,measurement,setting,value
Nc1cc(N2CCCCC2)nc(N)[n+]1[O-] [Minoxidil],Body fluid retention (incidence),in vivo,"Endocrine metabolic: Body fluid retention (7%), Hypernatremia"
same,Electrocardiogram abnormal (incidence),in vivo,"abnormal (60%), Pericardial effusion (3%), Pericarditis,"
same,Pericardial effusion (incidence),in vivo,"abnormal (60%), Pericardial effusion (3%), Pericarditis,"
COc1ccc2c3c1O[C@H]1C(=O)CC[C@H]4[C@@H](C2)N(C)CC[C@]314.O=C(O)C(O)C(O)C(=O)O [Hysingla ER],Abdominal pain,in vivo,"Gastrointestinal: Abdominal pain (1% to less than 5%),"
same,Constipation,in vivo,"Constipation (3% to 11%), Nausea (7% to 10%), Vomiting (3% to"
same,Difficulty swallowing,in vivo,Gastrointestinal: Difficulty swallowing (less than 1%)
same,Dizziness,in vivo,"Neurologic: Dizziness (2% to 3%), Headache (2% to 4%),"
same,Fatigue,in vivo,Other: Fatigue (1% to 4%)
same,Headache,in vivo,"Neurologic: Dizziness (2% to 3%), Headache (2% to 4%),"
same,Hypotension,in vivo,"Cardiovascular: Hypotension (less than 1%), Orthostatic"
same,Opioid withdrawal,in vivo,Opioid withdrawal (less than 1%)
same,Orthostatic hypotension,in vivo,"hypotension (less than 1%), Prolonged QT interval, Syncope"
same,Peripheral edema,in vivo,Cardiovascular: Peripheral edema (1% to less than 5%%)
same,Pruritus,in vivo,Dermatologic: Pruritus (0% to less than 5%)
same,"Serious side effect, Cardiovascular",in vivo,"hypotension (less than 1%), Prolonged QT interval, Syncope"
same,"Serious side effect, Neurologic",in vivo,"Neurologic: Raised intracranial pressure, Seizure"
same,"Serious side effect, Other",in vivo,"Other: Drug withdrawal syndrome in neonate of dependent mother,"
same,"Serious side effect, Respiratory",in vivo,Respiratory: Respiratory depression
same,Somnolence,in vivo,"Somnolence (1% to 5%), Tremor (3%)"
same,Spasm,in vivo,Musculoskeletal: Spasm (1% to less than 5%)
same,Tremor,in vivo,"Somnolence (1% to 5%), Tremor (3%)"
same,Upper respiratory infection,in vivo,Respiratory: Upper respiratory infection (1% to 3%)
same,Urinary tract infectious disease,in vivo,Renal: Urinary tract infectious disease (1% to 5%)
same,Xerostomia,in vivo,"6%), Xerostomia (1% to less than 5%)"
N=C(N)NC(=O)c1nc(Cl)c(N)nc1N [Amiloride (Midamor)],Asthenia,in vivo,"Musculoskeletal: Asthenia (greater than 1% to less than 3%),"
same,Cardiac dysrhythmia (incidence),in vivo,"Cardiovascular: Cardiac dysrhythmia (1% or less), Palpitations (1%"
same,Cough (incidence),in vivo,"Respiratory: Cough (greater than 1% to less than 3%), Dyspnea"
same,Cramp,in vivo,Cramp (greater than 1% to less than 3%)
same,Diarrhea,in vivo,"Gastrointestinal: Diarrhea (3% to 8%), Loss of appetite (3% to 8%),"
same,Dizziness,in vivo,"Neurologic: Dizziness (greater than 1% to less than 3%), Headache"
same,Dyspnea (incidence),in vivo,(greater than 1% to less than 3%)
same,Encephalopathy (incidence),in vivo,Neurologic: Encephalopathy (greater than 1% to less than 3%)
same,Headache (incidence),in vivo,(3% to 8%)
same,Hyperkalemia (incidence),in vivo,Endocrine metabolic: Hyperkalemia (10%)
same,Nausea,in vivo,"Nausea (3% to 8%), Vomiting (3% to 8%)"
same,Palpitations (incidence),in vivo,"Cardiovascular: Cardiac dysrhythmia (1% or less), Palpitations (1%"
same,Raised intraocular pressure (incidence),in vivo,Ophthalmic: Raised intraocular pressure (1% or less)
same,Rash,in vivo,Dermatologic: Rash (1% or less)
same,Serious side effect listed (incidence not given),in vivo,"Hematologic: Aplastic anemia, Neutropenia"
same,Vomiting,in vivo,"Nausea (3% to 8%), Vomiting (3% to 8%)"
O=C(O)Cc1ccccc1Nc1c(Cl)cccc1Cl [Zorvolex],Constipation,in vivo,"Gastrointestinal: Constipation (5% to 8%), Diarrhea (6%), Nausea"
same,Diarrhea,in vivo,"Gastrointestinal: Constipation (5% to 8%), Diarrhea (6%), Nausea"
same,Headache,in vivo,Neurologic: Headache (4% to 8%)
same,Nasopharyngitis,in vivo,"Respiratory: Nasopharyngitis (6%), Sinusitis (3% to 5%), Upper"
same,Nausea,in vivo,(6% to 7%)
same,"Serious side effect, Cardiovascular",in vivo,"Cardiovascular: Myocardial infarction, Thrombosis"
same,"Serious side effect, Gastrointestinal",in vivo,"Gastrointestinal: Gastrointestinal hemorrhage, Gastrointestinal"
same,"Serious side effect, Immunologic",in vivo,Immunologic: Anaphylactoid reaction
same,"Serious side effect, Neurologic",in vivo,Neurologic: Cerebrovascular accident
same,"Serious side effect, Renal",in vivo,Renal: Acute renal failure
same,"Serious side effect, Respiratory",in vivo,Respiratory: Bronchospasm
same,Sinusitis,in vivo,"Respiratory: Nasopharyngitis (6%), Sinusitis (3% to 5%), Upper"
same,Upper respiratory infection,in vivo,respiratory infection (8%)
same,Urinary tract infectious disease,in vivo,Renal: Urinary tract infectious disease (7%)
CC1(C)O[C@@H]2[C@@H](CO[C@@]3(COS(N)(=O)=O)OC(C)(C)O[C@@H]23)O1 [Topiramate (Topamax)],Confusion,in vivo,"Neurologic: Confusion (3% to 11%), Dizziness (4% to 25%),"
same,Dizziness,in vivo,"Neurologic: Confusion (3% to 11%), Dizziness (4% to 25%),"
same,Fatigue,in vivo,"Other: Fatigue (6% to 16%), Fever (1% to 12%)"
same,Fever,in vivo,"Other: Fatigue (6% to 16%), Fever (1% to 12%)"
same,Flushing,in vivo,"Dermatologic: Flushing (pediatrics, 5%)"
same,Hyperammonemia,in vivo,"Endocrine metabolic: Hyperammonemia (Adolescents, 26%),"
same,Impaired cognition,in vivo,"Impaired cognition (2% to 7%), Impaired psychomotor"
same,Impaired psychomotor performance,in vivo,"performance (2% to 13%), Memory impairment (3% to 12%),"
same,Infectious disease,in vivo,Immunologic: Infectious disease (2% to 8%)
same,Memory impairment,in vivo,"performance (2% to 13%), Memory impairment (3% to 12%),"
same,Nephrolithiasis,in vivo,"Renal: Nephrolithiasis (adults, 1% to 3%)"
same,"Serious side effect, Endocrine metabolic",in vivo,"Hypohidrosis, Increased body temperature, Metabolic acidosis"
same,"Serious side effect, Hepatic",in vivo,Hepatic: Liver failure
same,"Serious side effect, Neurologic",in vivo,Neurologic: Drug-induced encephalopathy
same,"Serious side effect, Ophthalmic",in vivo,"Ophthalmic: Glaucoma, Myopia, Visual field defect (epilepsy,"
same,"Serious side effect, Psychiatric",in vivo,Psychiatric: Suicidal thoughts
same,Somnolence,in vivo,"10%), Somnolence (6% to 29%)"
same,Visual field defect,in vivo,0.1% to 1%)
same,Weight decreased,in vivo,(4% to 21%)
Nesiritide (Natrecor),Dizziness (incidence),in vivo,"Neurologic: Dizziness (2%), Headache (7%)"
same,Headache (incidence),in vivo,"Neurologic: Dizziness (2%), Headache (7%)"
same,Hypotension (incidence),in vivo,Cardiovascular: Hypotension (4% to 17%)
same,Nausea (incidence),in vivo,Gastrointestinal: Nausea (3%)
same,Serum creatinine raised (incidence),in vivo,Renal: Serum creatinine raised (17% to 31.4%)
NC(=O)N1c2ccccc2C=Cc2ccccc21 [Equetro],Asthenia,in vivo,8%
same,Ataxia,in vivo,15%
same,Blurred vision,in vivo,6%
same,Constipation,in vivo,10%
same,Dizziness,in vivo,44%
same,Nausea,in vivo,29%
same,Pruritus,in vivo,8%
same,Rash,in vivo,7%
same,Vomiting,in vivo,18%
same,Xerostomia,in vivo,8%
same,"Common side effect, Cardiovascular",listed without frequency,Cardiovascular: Hypotension
same,"Common side effect, Neurologic",listed without frequency,Somnolence
same,"Common side effect, Ophthalmic",listed without frequency,Nystagmus
same,"Serious side effect, Dermatologic",listed without frequency,Stevens-Johnson syndrome
same,"Serious side effect, Gastrointestinal",listed without frequency,Gastrointestinal: Pancreatitis
same,"Serious side effect, Immunologic",listed without frequency,Immunologic: Drug hypersensitivity syndrome
same,"Serious side effect, Neurologic",listed without frequency,Neurologic: Acute intermittent porphyria
same,"Serious side effect, Other",listed without frequency,Other: Angioedema
same,"Serious side effect, Respiratory",listed without frequency,Respiratory: Pulmonary hypersensitivity
N#Cc1ccc2[nH]cc(CCCCN3CCN(c4ccc5oc(C(N)=O)cc5c4)CC3)c2c1 [Viibryd],Serotonin syndrome,in vivo,0.1%
same,"Serious side effect, Other",listed without frequency,Drug withdrawal
Nc1nnc(-c2cccc(Cl)c2Cl)c(N)n1 [Lamictal XR],Anxiety,extended-release,3%
same,Asthenia,extended-release,6%
same,Blurred vision,extended-release,3%
same,Coordination problem,extended-release,3%
same,Depression,extended-release,3%
same,Diarrhea,extended-release,5%
same,Diplopia,extended-release,"extended-release, 5%)"
same,Dizziness,extended-release,14%
same,Nausea,extended-release,7%
same,Somnolence,extended-release,5%
same,Tremor,extended-release,6%
same,Vertigo,extended-release,"release, 3%)"
same,Vomiting,extended-release,6%
same,Anemia,immediate release,"Hematologic: Anemia (immediate release, less than 0.1%),"
same,Eosinophilia,immediate release,< 0.1%
same,Thrombocytopenia,immediate release,"< 1%), Thrombocytopenia (immediate release, less than 0.1%)"
same,Anxiety,immediate-release,"Psychiatric: Anxiety (immediate-release, 4%; extended-release,"
same,Depression,immediate-release,4%
same,Headache,immediate-release,"Headache (immediate-release, 29%), Insomnia (immediate-release,"
same,Pain,immediate-release,"Other: Pain (immediate-release, 5%)"
same,Vertigo,immediate-release,2%
same,Blurred vision,"immediate-release, children",4%
same,Diplopia,"immediate-release, children",5%
same,Angioedema,in vivo,< 0.1%
same,Erythema multiforme,in vivo,"Dermatologic: Erythema multiforme (less than 0.1%), Rash,"
same,"Serious side effect, Hematologic",listed without frequency,"Disseminated intravascular coagulation, Eosinophilia (immediate"
same,"Serious side effect, Hepatic",listed without frequency,Hepatic: Liver failure
same,"Serious side effect, Immunologic",listed without frequency,Immunologic: Drug hypersensitivity syndrome
same,"Serious side effect, Neurologic",listed without frequency,Neurologic: Aseptic meningitis
